Data as given in patent US20260013502A1, “METHOD FOR TERMINATING COVER CROP GROWTH” (SUMITOMO CHEMICAL COMPANY, LIMITED, priority 2022, published 2026).
Counter-ions that a name gives are not always drawn.

Assays:
[1] = system: edible radish (Daikon Radish); assay: Example 8: greenhouse pot test, foliar application, termination of radish growth; assay type: in vivo, Raphanus sativus; conditions: for Dry matter weight: radish entire plant at growth termination, average of 3 pots; for Growth termination date / Date at the beginning of the onset of effect: epyrifenacil 25 g/ha applied 21 days after seeding, glyphosate-potassium salt 1,543 g/ha applied 15 days after seeding; for Date at the beginning of the onset of effect: visual change in leaf color in all 3 pots, day relative to application
Protocol: A plastic pot was filled with soil, and edible radish (Daikon Radish) was seeded and grown in a greenhouse. Fifteen days after seeding, RoundupPowerMax was diluted with water, and then the radish was subjected to foliar application from above using an automatic sprayer at a spray volume of 200 L/ha to achieve an application rate of 1,543 g/ha as glyphosate-potassium salt.
At the same time, the radish was similarly seeded in another plastic pot and grown. Twenty-one days after seeding, epyrifenacil emulsifiable concentrate (55 g/L) was diluted with water containing 1% (v/v) adjuvant Agri-Dex, and then the radish was subjected to foliar application from above using an automatic sprayer at a spray volume of 200 L/ha to achieve an application rate of 25 g/ha.
After application with the herbicide, the radish was grown in a greenhouse, and in case the growth was terminated, the entire plant was dug up at termination of the growth and the dry matter weight was measured. In this test, the growth was judged to be terminated when death of terminal and lateral buds was visually confirmed. The date at the beginning of the onset of effect, the growth termination date, and the dry matter weight at the time of growth termination are shown in Table 2. The onset of the effect was judged by visually observing the change in leaf color. Application with each herbicide was performed using three pots. The date at the beginning of the onset of effect and the growth termination date in the table were dates on which the onset of effect and growth termination were confirmed in all three pots, respectively. The dry matter weight was the average of the three pots.

[2] = system: cereal rye (Secale cereale); assay: Example 1: outdoor boom-sprayer foliar application to overwintered cereal rye at heading stage; assay type: in vivo; conditions: 40 g/ha epyrifenacil, EC 55 g/L, 0.5% MSO + 1% ammonium sulfate, 189 L/ha
Protocol: At the heading stage of cereal rye (Secale cereale) seeded in the autumn and overwintered outdoors after corn cultivation, epyrifenacil emulsifiable concentrate (55 g/L) was diluted with water containing 0.5% (v/v) adjuvant MSO+1% (w/v) ammonium sulfate, and the cereal rye is subjected to foliar application using a boom sprayer at a spray volume of 189 L/ha to deliver 40 g/ha of epyrifenacil.

radish (Tillage Radish) = assay: Example 2: outdoor boom-sprayer foliar application to overwintered radish at bolting stage; assay type: in vivo, Raphanus sativus; conditions: 20 g/ha epyrifenacil, EC 55 g/L, 0.5% Agri-Dex + 1% ammonium sulfate, 150 L/ha
Protocol: At the bolting stage of radish (Tillage Radish) seeded in the autumn and overwintered outdoors after soybean cultivation, epyrifenacil emulsifiable concentrate (55 g/L) was diluted with water containing 0.5% (v/v) adjuvant Agri-Dex+1% (w/v) ammonium sulfate, and the radish is subjected to foliar application using a boom sprayer at a spray volume of 150 L/ha to deliver 20 g/ha of epyrifenacil.

barley (Hordeum vulgare) = assay: Example 3: outdoor boom-sprayer foliar application to overwintered barley at internode elongation stage; assay type: in vivo; conditions: 30 g/ha epyrifenacil, EC 55 g/L, 0.5% Agri-Dex + 1% ammonium sulfate, 250 L/ha
Protocol: At the internode elongation stage of barley (Hordeum vulgare) seeded in the autumn and overwintered outdoors in a corn cultivation trace, epyrifenacil emulsifiable concentrate (55 g/L) was diluted with water containing 0.5% (v/v) adjuvant Agri-Dex+1% (w/v) ammonium sulfate, and the barley is subjected to foliar application using a boom sprayer at a spray volume of 250 L/ha to deliver 30 g/ha of epyrifenacil.

[3] = epyrifenacil 25 g/ha, glyphosate-potassium salt 1,543 g/ha
[4] = radish, greenhouse, death of terminal and lateral buds in all 3 pots

SMILES	Dry matter weight [1, 3]	Dry matter weight ([1]; epyrifenacil 25 g/ha, glyphosate-potassium salt 1,543 g/ha, listed as epyrifenacil)	Growth termination date [1, 4]	Date at the beginning of the onset of effect ([1]; radish, greenhouse)	Death of the cereal rye observed [2]	Death of the radish observed (radish (Tillage Radish))	Death of the barley observed (barley (Hordeum vulgare))	Growth termination date (days after application) ([1]; radish, greenhouse, death of terminal and lateral buds in all 3 pots, epyrifenacil 25 g/ha, glyphosate-potassium salt 1,543 g/ha)
CCOC(=O)COc1ncccc1Oc1cc(-n2c(=O)cc(C(F)(F)F)n(C)c2=O)c(F)cc1Cl [Epyrifenacil, epyrifenacil]	905 kg/ha	biomass was greater	24 Days after Days after seeding	On the day of	4 days after application	3 days after application	4 days after application	–
O=C(O)CNCP(=O)(O)O [Glyphosate-potassium salt, glyphosate-potassium salt]	360 kg/ha	–	24 Days after Days after seeding	7 Days after Days after application	–	–	–	seeding (9 days after application
